Assay results reported in patent publication US20180161314A1, “Methods for Treating Hyperuricemia and Related Diseases” (Ardea Biosciences, Inc., priority 2010, published 2018).

System: healthy adult subjects
Assay: Drug 1 / febuxostat cross-over interaction study in healthy adult subjects (Examples 10-12)
Format: in vivo, human
Details: for % serum uric acid change, Mean: drug 1 200 mg qd, febuxostat 40 mg qd; for Absolute sUA reduction from baseline, Intraday peak / Absolute sUA reduction from baseline, Trough / Percent sUA reduction from baseline, Intraday peak / Percent sUA reduction from baseline, Trough: febuxostat 40 mg alone
From the text: Study Objectives • To compare the multiple-dose pharmacokinetics of febuxostat in the absence versus presence of drug 1 co-administration. • To compare the multiple-dose pharmacokinetics of drug 1 in the absence versus presence of febuxostat co-administration. • To measure the effects of drug 1 and febuxostat, both alone and in combination, on serum uric acid concentrations and amounts of urate excreted into urine. • To evaluate the safety and tolerability of multiple-doses of drug 1 and febuxostat, both alone or in combination.
The study is a two or three-panel, placebo-controlled (for drug 1), double-blinded (for drug 1 and matched placebo), randomized, cross-over study with up to 54 healthy adult subjects. Each panel consisting of 18 subjects is sequentially enrolled, starting with Panel 1 (200 mg once daily dose of drug 1 or placebo), followed by Panel 2 (400 mg once daily dose of drug 1 or placebo), and followed by optional Panel 3 (100 mg to 600 mg once daily dose of drug 1 or placebo). The placebo control is included in this study to better assess safety and tolerability and the serum urate lowering effect of drug 1 in combination with febuxostat. Serum urate levels may be influenced by frequent blood draws and meal contents; therefore, the true effect on serum urate levels can be determined by correcting for placebo (subtract serum urate effect in placebo subjects from serum urate effect in active subjects).
Subjects in each panel are randomly assigned to one of two treatment sequences (Sequence A or B) after all Baseline (Day −1) procedures have been completed. Each treatment sequence within a panel consists of 9 subjects randomly assigned to receive drug 1 (6 of 9 subjects) or matching placebo (3 of 9 subjects) in a double-blinded fashion. For each treatment sequence, single-agent drug treatment is administered on Days 1 to 7 (either open-label febuxostat or double-blinded drug 1 or matched placebo by random assignment), followed by combination treatment on Days 8 to 14, and completing with the alternative single-agent drug treatment on Days 15 to 21, as follows (Panel 1 shown in FIG. 2):
Sequence A: Days 1-7: Febuxostat, 40 mg (once daily) • Days 8 to 14: drug 1, 200 mg or placebo in combination with febuxostat (once daily) • Days 15-21: drug 1, 200 mg, or placebo (once daily) Sequence B: Days 1-7: drug 1, 200 mg, or placebo (once daily) • Days 8 to 14: drug 1, 200 mg or placebo in combination with febuxostat (once daily) • Days 15-21: Febuxostat, 40 mg (once daily) […]
Serial blood samples for PK and PD assessments are collected up to 24 hours after dosing on Days 7, 14, and 21. Urine (total catch) for assays of drug 1, creatinine, and uric acid are collected starting on Day −1 (pre-treatment baseline) and after dosing on Days 7, 14, and 21. Final safety assessments are completed when subjects return to the clinic at 7±1 days after discharge from the clinic on Day 22 (Follow-Up visit on Day 29). The total volume of blood collected from each subject is approximately 518 mL.
Screening procedures to determine subject eligibility are performed 28 days before the first dose of study drug (Day 1). A total of up to 54 subjects enrolled in up to 3 panels consisting of 2 sequences each, with 9 subjects per sequence (18 subjects per panel). Subjects withdrawing after dosing are not replaced.
Subjects in Panel 1 receive a 200 mg dose of drug 1 or placebo once daily for 14 days and a 40 mg dose of febuxostat once daily for 14 days. Subjects in Panel 2 receive a 400 mg dose of drug 1 or placebo once daily for 14 days and a 40 mg dose of febuxostat once daily for 14 days. Subjects in Panel 3 receive a 100-600 mg dose of drug 1 or placebo once daily for 14 days and a 40 mg dose of febuxostat once daily for 14 days.
Subjects in Sequence A begin dosing on Day 1 with febuxostat and take their first dose of drug 1 or placebo on Day 8. […]

[1] = Week 2, Drug 1 200 mg + febuxostat 40 mg combo

## Cc1nc(-c2ccc(OCC(C)C)c(C#N)c2)sc1C(=O)O [Febuxostat, 2-(3-Cyano-4-isobutoxyphenyl)-4-methyl-1,3-thiazole-5-carboxylic acid, reference compound]
Day 1, Drug 1 200 mg, FBX 40 mg
  serum uric acid change from baseline, daily: −6.4%
Day 1
  % serum uric acid change, Mean: −7.5%
Day 2, Drug 1 200 mg, FBX 40 mg
  serum uric acid change from baseline, daily: −25.7%
Day 2
  % serum uric acid change, Mean: −23.8%
Day 3, Drug 1 200 mg, FBX 40 mg
  serum uric acid change from baseline, daily: −33.6%
Day 3
  % serum uric acid change, Mean: −30.5%
Day 4, Drug 1 200 mg, FBX 40 mg
  serum uric acid change from baseline, daily: −37.8%
Day 4
  % serum uric acid change, Mean: −34.5%
Day 5, Drug 1 200 mg, FBX 40 mg
  serum uric acid change from baseline, daily: −37.9%
Day 5
  % serum uric acid change, Mean: −34.3%
Day 6, Drug 1 200 mg, FBX 40 mg
  serum uric acid change from baseline, daily: −42.6%
Day 6
  % serum uric acid change, Mean: −38.1%
Day 7, Drug 1 200 mg, FBX 40 mg
  serum uric acid change from baseline, daily: −44.6%
Day 7
  % serum uric acid change, Mean: −39.0%
Day 8, Drug 1 200 mg, FBX 40 mg, alone or combined as labelled
  serum uric acid change from baseline, daily: −42.7%
Day 8
  % serum uric acid change, Mean: −38.9%
Day 9, Drug 1 200 mg, FBX 40 mg, alone or combined as labelled
  serum uric acid change from baseline, daily: −38.1%
Day 10, Drug 1 200 mg, FBX 40 mg, alone or combined as labelled
  serum uric acid change from baseline, daily: −40%
Day 11, Drug 1 200 mg, FBX 40 mg, alone or combined as labelled
  serum uric acid change from baseline, daily: −39.2%
Day 12, Drug 1 200 mg, FBX 40 mg, alone or combined as labelled
  serum uric acid change from baseline, daily: −36.9%
Day 13, Drug 1 200 mg, FBX 40 mg, alone or combined as labelled
  serum uric acid change from baseline, daily: −36.8%
Day 14, Drug 1 200 mg, FBX 40 mg, alone or combined as labelled
  serum uric acid change from baseline, daily: −42%
Day 15, Drug 1 200 mg, FBX 40 mg, alone or combined as labelled
  serum uric acid change from baseline, daily: −39.1%
Day 15, FBX 40 mg after combo
  serum uric acid change from baseline, daily: −62.3%
Day 16, Drug 1 200 mg alone (week 3), FBX 40 mg alone
  serum uric acid change from baseline, daily: −36.5%
Day 16, FBX 40 mg after combo
  serum uric acid change from baseline, daily: −50.9%
Day 17, Drug 1 200 mg alone (week 3), FBX 40 mg alone
  serum uric acid change from baseline, daily: −35.8%
Day 17, FBX 40 mg after combo
  serum uric acid change from baseline, daily: −45.6%
Day 18, Drug 1 200 mg alone (week 3), FBX 40 mg alone
  serum uric acid change from baseline, daily: −36.3%
Day 18, FBX 40 mg after combo
  serum uric acid change from baseline, daily: −45.7%
Day 19, Drug 1 200 mg alone (week 3), FBX 40 mg alone
  serum uric acid change from baseline, daily: −33.6%
Day 19, FBX 40 mg after combo
  serum uric acid change from baseline, daily: −41%
Day 20, Drug 1 200 mg alone (week 3), FBX 40 mg alone
  serum uric acid change from baseline, daily: −34.3%
Day 20, FBX 40 mg after combo
  serum uric acid change from baseline, daily: −42.9%
Day 21, Drug 1 200 mg alone (week 3), FBX 40 mg alone
  serum uric acid change from baseline, daily: −37.6%
Day 21, FBX 40 mg after combo
  serum uric acid change from baseline, daily: −49.1%
Day 22, Drug 1 200 mg alone (week 3), FBX 40 mg alone
  serum uric acid change from baseline, daily: −35.2%
Day 22, FBX 40 mg after combo
  serum uric acid change from baseline, daily: −45.7%
Week 1, Drug 1 200 mg alone
  Absolute sUA reduction from baseline, Intraday peak: -3.4 mg/dL
  Absolute sUA reduction from baseline, Trough: -2.8 mg/dL
  Percent sUA reduction from baseline, Intraday peak: −55.3%
  Percent sUA reduction from baseline, Trough: −45.4%
[1]
  Absolute sUA reduction from baseline, Intraday peak: -3.1 mg/dL
  Absolute sUA reduction from baseline, Trough: -2.6 mg/dL
  Percent sUA reduction from baseline, Intraday peak: −50.1%
  Percent sUA reduction from baseline, Trough: −41.2%
Week 3, Drug 1 200 mg alone
  Absolute sUA reduction from baseline, Intraday peak: -3.3 mg/dL
  Absolute sUA reduction from baseline, Trough: -2.7 mg/dL
  Percent sUA reduction from baseline, Intraday peak: −49.0%
  Percent sUA reduction from baseline, Trough: −42.1%
